Publication PMC3513416 (Bioorganic & medicinal chemistry letters, 2009)

Target: T1, taspase1 (Homo sapiens, UniProt Q9H6P5)
T1 sequence (Q9H6P5 1-233 limits assumed): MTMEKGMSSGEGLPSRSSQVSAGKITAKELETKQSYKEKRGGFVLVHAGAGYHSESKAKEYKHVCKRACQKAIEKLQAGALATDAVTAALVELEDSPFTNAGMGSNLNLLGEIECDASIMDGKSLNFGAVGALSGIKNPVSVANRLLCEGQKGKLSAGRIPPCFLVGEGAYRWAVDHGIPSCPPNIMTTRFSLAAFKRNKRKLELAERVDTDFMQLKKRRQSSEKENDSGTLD
T1 sequence (Q9H6P5 234-420 limits assumed): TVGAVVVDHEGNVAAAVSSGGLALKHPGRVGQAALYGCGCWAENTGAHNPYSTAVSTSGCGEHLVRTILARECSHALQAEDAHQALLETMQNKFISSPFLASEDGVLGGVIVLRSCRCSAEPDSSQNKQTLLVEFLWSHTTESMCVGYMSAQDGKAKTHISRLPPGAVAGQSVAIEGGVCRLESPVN
Experiment: Inhibition rates after different pre-incubation times
Format: biochemical
Settings: different amounts of pre-incubation time

time dependence of inhibition: inhibition was not time dependent
Substance: Ac-Ile-Ser-Gln-Leu-Asp-vs [yzm18]
